Measured values as given in patent US7179823B1, “5-membered n-heterocyclic compounds with hypoglycemic and hypolipidemic activity” (Takeda Pharmaceutical Company Limited, priority 1999, dated 2007).
Where two headings read alike, the source gives them in different places.

Legend:
[1] = tested on: KKA^y mice; test: Total cholesterol lowering action and plasma anti-arteriosclerosis index-enhancing action in mice; assay type: in vivo; details: Mus musculus, po, 96 h, four days, non-treatment group taken as 100%; for change in vivo at 0.005 % / inhibition in vivo at 0.005 %: 0.005% in powdery diet; for change in vivo at 0.01 % / inhibition in vivo at 0.01 %: 0.01% in powdery diet
From the text: Total Cholesterol Lowering Action and Plasma Anti-Arteriosclerosis Index-Enhancing Action in Mice
Test compounds were mixed in a powdery diet (CE-2, Japan Clea) at the concentration of 0.01% (compounds of Examples 12, 30, 89), 0.005% (compounds of Examples 38, 40, 44, 181, 184, 262, 283), or 0.001% (compounds of Examples 9, 156, 167, 172, 174, 176, 189), and freely given to KKA^y mice (9 to 12 weeks old, 5 mice per group), a model of obese and type 2 diabetes mellitus, for four days. During this period, water was given freely. Blood was sampled from orbital venous plexus and plasma was separated. Total cholesterol levels were determined by using L type Wako Cholesterol (Wako Pure Chemical Industries, Ltd.). Precipitation reagent for apoB containing lipoprotein was added to a part of the plasma to precipitate non-HDL lipoprotein, and cholesterol (HDL cholesterol) in the resulting supernatant was determined. The plasma anti-arteriosclerosis index [(HDL cholesterol/total cholesterol)×100] was calculated by using these cholesterol levels.
In the Table, “Total cholesterol lowering action (%)” represents the percent reduction (%) of total cholesterol level in the treatment group, when the total cholesterol level in the non-treatment group is taken as 100%. “Plasma anti-arteriosclerosis index-enhancing action (%)” represents the percent increase (%) of plasma anti-arteriosclerosis index in the treatment group, when the plasma anti-arteriosclerosis index in the non-treatment group is taken as 100%.

[2] = tested on: KKA^y mice; test: Hypoglycemic and hypolipidemic actions in mice; assay type: in vivo; details: Mus musculus, po, 96 h, four days; for inhibition in vivo at 0.001 %: 0.001% in powdery diet; for inhibition in vivo at 0.0003 %: 0.0003% in powdery diet; for inhibition in vivo at 0.01 %: 0.01% in powdery diet; for inhibition in vivo at 0.005 %: 0.005% in powdery diet
Summary of the method: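 Obese type 2 diabetic KKA^y mice (9-12 weeks, n=5) received compound mixed in powdered diet at 0.0003-0.01% ad libitum for four days. Plasma glucose and triglycerides from orbital venous blood measured enzymatically; values are percent reduction versus untreated group.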

[3] = percent reduction of plasma glucose compared with the non-treatment group, read-out: Hypoglycemic action (%)
[4] = percent reduction of plasma triglyceride compared with the non-treatment group, read-out: Hypolipidemic action (%)
[5] = percent increase of [(HDL cholesterol/total cholesterol)×100], read-out: Plasma anti-arteriosclerosis index-enchancing action (%)
[6] = percent reduction of plasma total cholesterol

| SMILES | melting point [°C] | change in vivo at 0.005 % [1, 5] [%] | inhibition in vivo at 0.005 % [1, 6] [%] | inhibition in vivo at 0.0003 % [2, 3] [%] | inhibition in vivo at 0.0003 % [2, 4] [%] | change in vivo at 0.01 % [1, 5] [%] | inhibition in vivo at 0.01 % [1, 6] [%] | inhibition in vivo at 0.01 % [2, 3] [%] | inhibition in vivo at 0.01 % [2, 4] [%] | other results |
| --- | --- | --- | --- | --- | --- | --- | --- | --- | --- | --- |
| Cc1oc(-c2cccs2)nc1COc1ccc(Cn2cc(CCC(=O)O)c(-c3ccccc3)c2)cc1 [Example 9, 3-[1-[4-[5-methyl-2-(2-thienyl)-4-oxazolylmethoxy]benzyl]-4-phenyl-3-pyrrolyl]propionic acid] | 117 to 118 |  |  |  |  |  |  |  |  | change in vivo at 0.001 % ([1]; 0.001% in powdery diet, percent increase of [(HDL cholesterol/total cholesterol)×100], read-out: Plasma anti-arteriosclerosis index-enchancing action (%)): 12%; inhibition in vivo at 0.001 % ([1]; 0.001% in powdery diet, percent reduction of plasma total cholesterol): 16%; inhibition in vivo at 0.001 % [2, 3]: 48%; inhibition in vivo at 0.001 % [2, 4]: 70% |
| O=C(O)CCc1cn(Cc2ccc(OCc3csc(-c4ccco4)n3)cc2)cc1-c1ccccc1 [Example 38, 3-[1-[4-[2-(2-furyl)-4-thiazolylmethoxy]benzyl]-4-phenyl-3-pyrrolyl]propionic acid] | 114 to 115 | 21 | 24 | 44 | 69 |  |  |  |  |  |
| O=C(O)CCc1cn(Cc2ccc(OCc3cccnc3)cc2)cc1-c1ccccc1 [Example 12, 3-[4-phenyl-1-[4-(3-pyridylmethoxy)benzyl]-3-pyrrolyl]propionic acid] | 131 to 132 |  |  |  |  | 24 | 15 | 46 | 63 |  |
| CCOc1nn(Cc2ccc(OCc3nc(-c4ccccc4)oc3C)nc2)cc1CC(=O)O [Example 262, 3-ethoxy-1-[6-(5-methyl-2-phenyl-4-oxazolylmethoxy)-3-pyridylmethyl]-1H-pyrazol-4-ylacetic acid] | 126 to 127 | 9 | 22 |  |  |  |  |  |  | inhibition in vivo at 0.005 % [2, 3]: 45%; inhibition in vivo at 0.005 % [2, 4]: 61% |
| O=C(O)CCc1cn(Cc2ccc(OCc3csc(-c4cccs4)n3)cc2)cc1-c1ccccc1 [Example 40, 3-[4-phenyl-1-[4-[2-(2-thienyl)-4-thiazolylmethoxy]benzyl]-3-pyrrolyl]propionic acid] | 106 to 107 | 22 | 19 | 41 | 66 |  |  |  |  |  |
| Cc1oc(-c2ccccc2)nc1COc1ccc(Cn2cc(CCC(=O)O)c(-c3ccccc3)n2)cn1 [Example 283, 3-[1-[2-(5-methyl-2-phenyl-4-oxazolylmethoxy)-5-pyridylmethyl]-3-phenyl-1H-pyrazol-4-yl]propionic acid] |  | 19 | 24 |  |  |  |  |  |  | inhibition in vivo at 0.005 % [2, 3]: 52%; inhibition in vivo at 0.005 % [2, 4]: 78% |
| Cc1oc(-c2ccccc2)nc1COc1ccc(Cn2cc(CCC(=O)O)c(-c3ccccc3)n2)cc1 [Example 89, 3-[1-[4-(5-methyl-2-phenyl-4-oxazolylmethoxy)benzyl]-3-phenyl-1H-pyrazol-4-yl]propionic acid] | 179 to 180 |  |  |  |  | 15 | 8 | 48 | 70 |  |
| O=C(O)CCc1cn(Cc2ccc(OCc3csc(-c4ccccc4)n3)cc2)cc1-c1ccccc1 [Example 30, 3-[4-phenyl-1-[4-(2-phenyl-4-thiazolylmethoxy)benzyl]-3-pyrrolyl]propionic acid] | 111 to 112 |  |  |  |  | 16 | 27 | 54 | 77 |  |
| O=C(O)CCc1cn(Cc2ccc(OCc3coc(-c4ccccc4)n3)cc2)cc1-c1ccccc1 [Example 44, 3-[4-phenyl-1-[4-(2-phenyl-4-oxazolylmethoxy]benzyl]-3-pyrrolyl]propionic acid] | 139 to 140 | 21 | 23 | 47 | 74 |  |  |  |  |  |
